Laboratory results taken from article PMC7069944, “Amino acid levels determine metabolism and CYP450 function of hepatocytes and hepatoma cell lines” (Nature Communications, 2020).
Where “and” joins values, the source holds several entries; their conditions need not be identical. Identical values can stand only once.

Key:
HepG2 = assay: Repeated-exposure DILI training compounds, resazurin conversion, HepG2; conditions: replicates, listed as Ximelatagran
How it was run: (§1)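 Viability by resazurin conversion, correlated with Cmax, was assessed after drug exposure in 384-well cultures of differentiated PSCs and of HepG2 (40,000 cells/well). Dosing began 8 h post-attachment, with untreated wells as negative control.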

HLC = assay: Repeated-exposure DILI training compounds, resazurin conversion, HLC; conditions: replicates, listed as Ximelatagran
How it was run: as §1

HC3X = assay: Repeated-exposure DILI training compounds, resazurin conversion, HC3X; conditions: for resazurin conversion (Supplementary Figure 7D): HC3X AAGLY D40, replicates, listed as Ximelatagran
How it was run: as §1

HC6X = assay: Repeated-exposure DILI training compounds, resazurin conversion, HC6X; conditions: replicates, listed as Ximelatagran
How it was run: as §1

CCOC(=O)CN[C@@H](C(=O)N1CC[C@H]1C(=O)NCc1ccc(/C(N)=N\O)cc1)C1CCCCC1 [ximelagatran]
resazurin conversion (Supplementary Figure 7D) (HepG2; HepG2 AAGLY D30, 10 uM): 94.6 and 101.9 and 93.6
resazurin conversion (Supplementary Figure 7D) (HepG2; HepG2 AAGLY D30, 30 uM): 92.6 and 98.4 and 83.3 and 96.4 and 96.6 and 94.8
resazurin conversion (Supplementary Figure 7D) (HepG2; HepG2 AAGLY D30, 50 uM): 93.8 and 101.4 and 83.8 and 100.6 and 100.8 and 103
resazurin conversion (Supplementary Figure 7D) (HepG2; HepG2 AAGLY D30, 100 uM): 87.1 and 96.4 and 79.9 and 96 (2×) and 99.8
resazurin conversion (Supplementary Figure 7D) (HepG2; HepG2 AAGLY D30, 300 uM): 79.2 and 92.1 and 83.1 and 91.5 (2×) and 86.4
resazurin conversion (Supplementary Figure 7D) (HepG2; HepG2 AAGLY D30, 500 uM): 73.8 and 82.7 and 72.5 and 77.3 and 81.8 and 90.8
resazurin conversion (Supplementary Figure 7D) (HepG2; HepG2 AAGLY D30, 1000 uM): 33.4 and 32.8 and 32.2 and 33.5 and 33 and 34
resazurin conversion (Supplementary Figure 7D) (HepG2; HepG2 AAGLY D30, 2000 uM): 32.1 and 33.4 and 32.3 and 33 and 31.5 and 35.4
resazurin conversion (Supplementary Figure 7D) (HepG2; HepG2 AAGLY D30, 4000 uM): 32.2 and 33.1 and 31.8 and 32.9 (2×) and 31.4
resazurin conversion (Supplementary Figure 7D) (HepG2; HepG2 CTL D7, 10 uM): 100
resazurin conversion (Supplementary Figure 7D) (HepG2; HepG2 CTL D7, 30 uM): 113.6 and 106.8 and 92.5 and 99.4 and 103.9 and 98.2
resazurin conversion (Supplementary Figure 7D) (HepG2; HepG2 CTL D7, 50 uM): 100.3 and 102 and 94.9 and 85.4 and 97.6 and 93
resazurin conversion (Supplementary Figure 7D) (HepG2; HepG2 CTL D7, 100 uM): 99.5 and 95.1 and 87 and 84.8 and 92.1 and 91.7
resazurin conversion (Supplementary Figure 7D) (HepG2; HepG2 CTL D7, 300 uM): 98.7 and 94.5 and 90.1 and 84 and 87.6 and 84.8
resazurin conversion (Supplementary Figure 7D) (HepG2; HepG2 CTL D7, 500 uM): 86.4 and 89.2 and 85.2 and 81.4 and 85.9 and 81.5
resazurin conversion (Supplementary Figure 7D) (HepG2; HepG2 CTL D7, 1000 uM): 71.2 and 56.7 and 60.3 and 67.6 and 70.2 and 66
resazurin conversion (Supplementary Figure 7D) (HepG2; HepG2 CTL D7, 2000 uM): 35.7 and 15 and 22 and 29.6 and 28.3 and 27.1
resazurin conversion (Supplementary Figure 7D) (HepG2; HepG2 CTL D7, 4000 uM): 7.9 (2×) and 7.7 (3×) and 8
resazurin conversion (Supplementary Figure 7D) (HLC; HLC AAGLY D40, 30 uM): 87.9 and 61.4 and 89.7 and 86.8 and 95.5 and 101.7
resazurin conversion (Supplementary Figure 7D) (HLC; HLC AAGLY D40, 50 uM): 102.7 and 110.5 and 84 and 85.7 and 101.4 and 47.2
resazurin conversion (Supplementary Figure 7D) (HLC; HLC AAGLY D40, 100 uM): 101.8 and 83.1 and 91.6 and 97.8 and 108.1 and 71.2
resazurin conversion (Supplementary Figure 7D) (HLC; HLC AAGLY D40, 300 uM): 102 and 100.4 and 103.4 and 99.6 and 91.1 and 43.4
resazurin conversion (Supplementary Figure 7D) (HLC; HLC AAGLY D40, 500 uM): 103.1 and 102.1 and 106.2 and 106.4 and 103.3 and 93.1
resazurin conversion (Supplementary Figure 7D) (HLC; HLC AAGLY D40, 1000 uM): 124.2 and 94.4 and 100.6 and 122 and 108.3 and 107.9
resazurin conversion (Supplementary Figure 7D) (HLC; HLC AAGLY D40, 2000 uM): 74 and 131.7 and 126.4 and 135.7 and 116.8 and 129.6
resazurin conversion (Supplementary Figure 7D) (HLC; HLC AAGLY D40, 4000 uM): 129.4 and 115 and 25.5 and 112.7 and 127.1 and 50.9
resazurin conversion (Supplementary Figure 7D) (HLC; HLC LDM D40, 10 uM): 103 and 119.6 and 106.5 and 118.8
resazurin conversion (Supplementary Figure 7D) (HLC; HLC LDM D40, 30 uM): 98.9 and 98.8 and 106 and 104.1 and 100.4 and 102.4
resazurin conversion (Supplementary Figure 7D) (HLC; HLC LDM D40, 50 uM): 120.6 and 118.1 and 72.7 and 111.9 and 69.1 and 123.9
resazurin conversion (Supplementary Figure 7D) (HLC; HLC LDM D40, 100 uM): 93.8 and 126.7 and 78.4 and 121.1 and 87.3 and 126.3
resazurin conversion (Supplementary Figure 7D) (HLC; HLC LDM D40, 300 uM): 125.4 and 106 and 125.6 and 93.6 and 136.9 and 112.2
resazurin conversion (Supplementary Figure 7D) (HLC; HLC LDM D40, 500 uM): 130.3 and 128.1 and 99.5 and 124.6 and 98 and 115.9
resazurin conversion (Supplementary Figure 7D) (HLC; HLC LDM D40, 1000 uM): 132.9 and 140 and 126.4 and 146.9 and 116.4 and 158.5
resazurin conversion (Supplementary Figure 7D) (HLC; HLC LDM D40, 2000 uM): 87.8 and 64.2 and 95.2 and 125.1 and 69.7 and 117.1
resazurin conversion (Supplementary Figure 7D) (HLC; HLC LDM D40, 4000 uM): 52.7 and 74.5 and 71.5 and 69.4 and 112 and 163.8
resazurin conversion (Supplementary Figure 7D) (HC3X; 10 uM): 103.6 and 112.1 and 116.7 and 110.7 and 88 and 80.4
resazurin conversion (Supplementary Figure 7D) (HC3X; 30 uM): 112.5 and 93.4 and 100.9 and 65.5 and 110.1 and 86
resazurin conversion (Supplementary Figure 7D) (HC3X; 50 uM): 112.6 and 97.1 and 99.6 and 78.9 and 96.7 and 79.4
resazurin conversion (Supplementary Figure 7D) (HC3X; 100 uM): 99 and 94.2 and 111.5 and 113 and 97.2 and 95.7
resazurin conversion (Supplementary Figure 7D) (HC3X; 300 uM): 105.9 and 98.6 and 86.6 and 80.1 and 95.6 and 93.9
resazurin conversion (Supplementary Figure 7D) (HC3X; 500 uM): 93.3 and 104.7 and 99.6 and 103.7 and 88.7 and 115
resazurin conversion (Supplementary Figure 7D) (HC3X; 1000 uM): 89.5 and 109.6 and 93 and 88.2 and 108.4 and 91.9
resazurin conversion (Supplementary Figure 7D) (HC3X; 2000 uM): 61.4 and 104.7 and 97.3 and 97.1 and 64.3 and 60.4
resazurin conversion (Supplementary Figure 7D) (HC3X; 4000 uM): 43.9 and 48.4 and 38 and 42.8 and 47.8 and 45
IC50/Cmax (HC3X; human): 2438.67
resazurin conversion (Supplementary Figure 7D) (HC6X; HC6X AAGLY D40, 10 uM): 93.8 and 58.7 and 78.1 and 118.1
resazurin conversion (Supplementary Figure 7D) (HC6X; HC6X AAGLY D40, 30 uM): 71.1 and 54.3 and 108.4 and 77.4 and 109.2 and 98.7
resazurin conversion (Supplementary Figure 7D) (HC6X; HC6X AAGLY D40, 50 uM): 68.8 and 53.6 and 125.9 and 98.4 and 222.1 and 82.6
resazurin conversion (Supplementary Figure 7D) (HC6X; HC6X AAGLY D40, 100 uM): 99.7 and 88.3 and 135.4 and 113.5 and 107.4 and 93.9
resazurin conversion (Supplementary Figure 7D) (HC6X; HC6X AAGLY D40, 300 uM): 82 and 93.2 and 129.1 and 140.3 and 141.2 and 166.5
resazurin conversion (Supplementary Figure 7D) (HC6X; HC6X AAGLY D40, 500 uM): 65.3 and 103.3 and 98.2 and 91.7 and 122.8 and 148.3
resazurin conversion (Supplementary Figure 7D) (HC6X; HC6X AAGLY D40, 1000 uM): 71.6 and 76.5 and 78.4 and 144 and 115.7 and 139.1
resazurin conversion (Supplementary Figure 7D) (HC6X; HC6X AAGLY D40, 2000 uM): 61.7 and 53.9 and 78.6 and 67 and 113.9 and 90
resazurin conversion (Supplementary Figure 7D) (HC6X; HC6X AAGLY D40, 4000 uM): 54.4 and 81.3 and 84.4 and 85.7 and 55.2 and 56.8
resazurin conversion (Supplementary Figure 7D) (HC6X; HC6X AAGLY D40 Remove dox, 30 uM): 72.9 and 78.3 and 89.9 and 101.5 and 95.4 and 95.8
resazurin conversion (Supplementary Figure 7D) (HC6X; HC6X AAGLY D40 Remove dox, 50 uM): 55.3 and 86.1 and 70.5 and 85.8 and 92.1 and 68.6
resazurin conversion (Supplementary Figure 7D) (HC6X; HC6X AAGLY D40 Remove dox, 100 uM): 82.1 and 85 and 79 and 110.7 and 88.3 and 96.6
resazurin conversion (Supplementary Figure 7D) (HC6X; HC6X AAGLY D40 Remove dox, 300 uM): 99.4 and 92.8 and 102.5 and 91.4 and 94.8 and 77.9
resazurin conversion (Supplementary Figure 7D) (HC6X; HC6X AAGLY D40 Remove dox, 500 uM): 78.1 and 81.7 and 105.3 and 97 and 101.1 and 82.7
resazurin conversion (Supplementary Figure 7D) (HC6X; HC6X AAGLY D40 Remove dox, 1000 uM): 77.2 and 89.1 and 81.5 and 96.6 and 108.9 and 116.8
resazurin conversion (Supplementary Figure 7D) (HC6X; HC6X AAGLY D40 Remove dox, 2000 uM): 95.3 and 105.5 and 72.8 and 94.8 and 76.2 and 80.9
resazurin conversion (Supplementary Figure 7D) (HC6X; HC6X AAGLY D40 Remove dox, 4000 uM): 46.6 and 40.3 and 96 and 68.1 and 83.6 and 42.4
